Reference: paper PMC6768028, “Synthesis, SAR and in vitro therapeutic potentials of thiazolidine-2,4-diones” (Chemistry Central Journal, 2018)
In brackets after ≈: the same amount, converted by molar mass. Like-named read-outs stand apart in the source and are kept apart here.

What was measured:
[1] = Antioxidant activity: free radical scavenging method by DPPH assay; conditions: for % inhibition (DPPH), 25 μg/ml / % inhibition (DPPH), 50 μg/ml / % inhibition (DPPH), 75 μg/ml / % inhibition (DPPH), 100 μg/ml: 30 min, 517 nm; for IC50 (antioxidant activity, DPPH): calculated via graph of % inhibition
Experimental: The antioxidant activity of the newly synthesized compounds were evaluated spectrophotometrically using free radical scavenging method by DPPH (2,2-diphenyl-1-picrylhydrazyl) assay. The DPPH is a stable free radical with maximal absorption at 517 nm and is reduced to a corresponding hydrazine when it reacting with hydrogen donors. […] DPPH solution (3 μg/ml) was prepared in methanol and DPPH (in 1:1) solution was used for blank reference. Four dilutions of different concentrations (25, 50, 75 and 100 μg/ml) of each synthesized compound and standard (ascorbic acid) were prepared in the methanol and 1 ml of each concentration was added to 1 ml of DPPH solution. The solution mixture was shaken vigorously and kept in dark place for 30 min at room temperature and absorbance was measured by UV at 517 nm. Percentage inhibition of Free radical DPPH was calculated as follows:1 %Inhibition=ABlank-ASample/ABlank×100 where, ABlank: absorbance of the blank reaction, ASample: absorbance of the test compound.

Escherichia coli = test: Antimicrobial activity, tube dilution method (MIC); assay type: cell-based; conditions: 24 h
Experimental: (§1) The in vitro antimicrobial activity of synthesized compounds was done by tube dilution method against Gram-positive bacteria: Staphylococcus aureus, Bacillus subtilis, Gram-negative bacteria: Escherichia coli, Klebsiella pneumonia, Salmonella typhi and fungal: Candida albicans and Aspergillus niger strains using cefadroxil and fluconazole as standard. Dilutions of test and standard compounds were prepared in double strength nutrient broth for bacterial strains and Sabouraud dextrose broth for fungal strains.

Salmonella typhi = test: Antimicrobial activity, tube dilution method (MIC); assay type: cell-based; conditions: 24 h; for MIC: Salmonella enterica, TYPHI, read-out: Minimum inhibitory concentration, S. typhi
Experimental: as §1

Staphylococcus aureus = test: Antimicrobial activity, tube dilution method (MIC); assay type: cell-based; conditions: 24 h, read-out: Minimum inhibitory concentration, S. aureus, tube dilution, 37 ± 1 °C, 24 h
Experimental: as §1

Klebsiella pneumonia = test: Antimicrobial activity, tube dilution method (MIC); assay type: cell-based; conditions: Klebsiella pneumoniae, 24 h
Experimental: as §1

Bacillus subtilis = test: Antimicrobial activity, tube dilution method (MIC); assay type: cell-based; conditions: 24 h, read-out: Minimum inhibitory concentration, B. subtilis, tube dilution, 37 ± 1 °C, 24 h
Experimental: as §1

[2] = tested on: α-amylase enzyme (diastase); test: Antidiabetic activity: α-amylase inhibitory activity using diastase, colorimetric method; assay type: biochemical; conditions: for IC50 (antidiabetic activity, α-amylase): calculated via graph of % inhibition
Experimental: All the synthesized compounds were evaluated against α-amylase inhibitory activity by using diastase based on colorimetric method. 0.25 g of soluble potato starch was dissolved in 50 ml of 20 mM phosphate buffer by heating for 15 min. 1 mg diastase (amylase enzyme) was mixed in 100 ml of 20 mM phosphate buffer (pH 6.9) to obtain the enzyme solution. Different concentrations of all the synthesized derivatives were prepared by dissolving them in DMSO. […] 1 ml of enzyme solution was mixed with 1 ml of each synthesized derivatives and incubated for 10 min at 25 °C. Then 1 ml of this mixture was mixed with 1 ml of soluble potato starch solution in a tube and incubated for 10 min at 25 °C. Then tubes were closed after adding 1 ml of color reagent and placed into water bath for 15 min at 85 °C. The reaction mixture was removed from water bath after 15 min. After cooling, the reaction mixture was diluted with 9 ml of distilled water and the absorbance was taken at 540 nm in UV spectrophotometer. Blank solution was prepared by replacing the enzyme solution with buffer solution and absorbance was taken. Measurement of control was performed in identical manner by replacing the synthesized derivatives in 1 ml of DMSO.
Percentage inhibition of α-amylase enzyme was calculated by using following formula:1 %Inhibition=ABlank-ASample/ABlank×100

Candida albicans = test: Antifungal activity, tube dilution method (MIC); assay type: cell-based; conditions: 48 h, read-out: Minimum inhibitory concentration, C. albicans, tube dilution, 37 ± 1 °C, 48 h
Experimental: as §1

Aspergillus niger = test: Antifungal activity, tube dilution method (MIC); assay type: cell-based; conditions: 168 h, read-out: Minimum inhibitory concentration, A. niger, tube dilution, 25 ± 1 °C, 7 days
Experimental: as §1

[3] = read-out: Minimum inhibitory concentration, E. coli, tube dilution, 37 ± 1 °C, 24 h
[4] = read-out: Minimum inhibitory concentration, K. pneumonia, tube dilution, 37 ± 1 °C, 24 h

O=C1NC(=O)/C(=C\c2cccc(Cl)c2)S1 [Compound 14, 5-(3-Chlorobenzylidene)thiazolidiine-2,4-dione]
melting point: 137 to 140 °C

O=C1NC(=O)C(=Cc2ccc(O)cc2)S1 [Compound 5, 5-(4-Hydroxybenzylidene)thiazolidine-2,4-dione]
% inhibition (DPPH), 25 μg/ml [1]: 35.79%
% inhibition (DPPH), 50 μg/ml [1]: 39.78%
% inhibition (DPPH), 75 μg/ml [1]: 62.02%
% inhibition (DPPH), 100 μg/ml [1]: 85.47%
IC50 (antioxidant activity, DPPH) [1]: 31.10 µg/mL (≈ 141 µM)
MIC (Escherichia coli; tube dilution, 37 ± 1 °C, read-out: Minimum inhibitory concentration, E. coli): 11.3 mM (≈ 2500 µg/mL)
MIC (Salmonella typhi): 5.65 mM (≈ 1250 µg/mL)
MIC (Staphylococcus aureus): 5.65 mM (≈ 1250 µg/mL)
MIC (Klebsiella pneumonia; tube dilution, 37 ± 1 °C, read-out: Minimum inhibitory concentration, K. pneumonia): 11.3 mM (≈ 2500 µg/mL)
MIC (Bacillus subtilis): 5.65 mM (≈ 1250 µg/mL)
% inhibition (α-amylase), 25 μg/ml [2]: 18.26%
% inhibition (α-amylase), 50 μg/ml [2]: 47.61%
% inhibition (α-amylase), 75 μg/ml [2]: 49.24%
% inhibition (α-amylase), 100 μg/ml [2]: 96.72%
IC50 (antidiabetic activity, α-amylase) [2]: 56.64 µg/mL (≈ 256 µM)
MIC (Candida albicans): 5.65 mM (≈ 1250 µg/mL)
MIC (Aspergillus niger): 5.65 mM (≈ 1250 µg/mL)

O=C1NC(=O)C(=C/C=C/c2ccccc2)S1 [Compound 20, 5-((E)-3-Phenylallylidene)thiazolidine-2,4-dione]
% inhibition (DPPH), 25 μg/ml [1]: 25.64%
% inhibition (DPPH), 50 μg/ml [1]: 46.93%
% inhibition (DPPH), 75 μg/ml [1]: 69.55%
% inhibition (DPPH), 100 μg/ml [1]: 87.97%
IC50 (antioxidant activity, DPPH) [1]: 43.89 µg/mL (≈ 190 µM)
MIC (Escherichia coli; [3]): 5.4 mM (≈ 1250 µg/mL)
MIC (Salmonella typhi): 5.4 mM (≈ 1250 µg/mL)
MIC (Staphylococcus aureus): 5.4 mM (≈ 1250 µg/mL)
MIC (Klebsiella pneumonia; [4]): 10.8 mM (≈ 2500 µg/mL)
MIC (Bacillus subtilis): 5.4 mM (≈ 1250 µg/mL)
% inhibition (α-amylase), 25 μg/ml [2]: 34.73%
% inhibition (α-amylase), 50 μg/ml [2]: 45.98%
% inhibition (α-amylase), 75 μg/ml [2]: 68.34%
% inhibition (α-amylase), 100 μg/ml [2]: 88.45%
IC50 (antidiabetic activity, α-amylase) [2]: 31.62 µg/mL (≈ 137 µM)
MIC (Candida albicans): 5.4 mM (≈ 1250 µg/mL)
MIC (Aspergillus niger): 5.4 mM (≈ 1250 µg/mL)

COc1cc(C=C2SC(=O)NC2=O)ccc1O [Compound 18, 5-(4-Hydroxy-3-methoxybenzylidene)thiazolidine-2,4-dione]
% inhibition (DPPH), 25 μg/ml [1]: 36.94%
% inhibition (DPPH), 50 μg/ml [1]: 43.52%
% inhibition (DPPH), 75 μg/ml [1]: 60.12%
% inhibition (DPPH), 100 μg/ml [1]: 93.03%
IC50 (antioxidant activity, DPPH) [1]: 33.51 µg/mL (≈ 133 µM)
MIC (Escherichia coli; [3]): 4.9 mM (≈ 1230 µg/mL)
MIC (Salmonella typhi): 4.9 mM (≈ 1230 µg/mL)
MIC (Staphylococcus aureus): 4.9 mM (≈ 1230 µg/mL)
MIC (Klebsiella pneumonia; [4]): 9.9 mM (≈ 2490 µg/mL)
MIC (Bacillus subtilis): 4.9 mM (≈ 1230 µg/mL)
% inhibition (α-amylase), 25 μg/ml [2]: 18.64%
% inhibition (α-amylase), 50 μg/ml [2]: 45.85%
% inhibition (α-amylase), 75 μg/ml [2]: 65.11%
% inhibition (α-amylase), 100 μg/ml [2]: 95.98%
IC50 (antidiabetic activity, α-amylase) [2]: 56.39 µg/mL (≈ 224 µM)
MIC (Candida albicans): 4.9 mM (≈ 1230 µg/mL)
MIC (Aspergillus niger): 4.9 mM (≈ 1230 µg/mL)

CCOc1cc(C=C2SC(=O)NC2=O)ccc1O [Compound 11, 5-(4-Hydroxy-3-ethoxybenzylidene)thiazolidine-2,4-dione]
% inhibition (DPPH), 25 μg/ml [1]: 18.64%
% inhibition (DPPH), 50 μg/ml [1]: 25.71%
% inhibition (DPPH), 75 μg/ml [1]: 72.78%
% inhibition (DPPH), 100 μg/ml [1]: 93.59%
IC50 (antioxidant activity, DPPH) [1]: 64.03 µg/mL (≈ 241 µM)
MIC (Escherichia coli; [3]): 4.7 mM (≈ 1250 µg/mL)
MIC (Salmonella typhi): 4.7 mM (≈ 1250 µg/mL)
MIC (Staphylococcus aureus): 4.7 mM (≈ 1250 µg/mL)
MIC (Klebsiella pneumonia; [4]): 4.7 mM (≈ 1250 µg/mL)
MIC (Bacillus subtilis): 9.4 mM (≈ 2490 µg/mL)
% inhibition (α-amylase), 25 μg/ml [2]: 18.49%
% inhibition (α-amylase), 50 μg/ml [2]: 47.87%
% inhibition (α-amylase), 75 μg/ml [2]: 59.74%
% inhibition (α-amylase), 100 μg/ml [2]: 89.71%
IC50 (antidiabetic activity, α-amylase) [2]: 52.69 µg/mL (≈ 199 µM)
MIC (Candida albicans): 4.7 mM (≈ 1250 µg/mL)
MIC (Aspergillus niger): 4.7 mM (≈ 1250 µg/mL)

COc1ccc(C=C2SC(=O)NC2=O)cc1OC [Compound 19, 5-(3,4-Dimethoxybenzylidene)thiazolidine-2,4-dione]
% inhibition (DPPH), 25 μg/ml [1]: 28.64%
% inhibition (DPPH), 50 μg/ml [1]: 39.67%
% inhibition (DPPH), 75 μg/ml [1]: 73.41%
% inhibition (DPPH), 100 μg/ml [1]: 90.05%
IC50 (antioxidant activity, DPPH) [1]: 46.03 µg/mL (≈ 174 µM)
MIC (Escherichia coli; [3]): 4.7 mM (≈ 1250 µg/mL)
MIC (Salmonella typhi): 4.7 mM (≈ 1250 µg/mL)
MIC (Staphylococcus aureus): 4.7 mM (≈ 1250 µg/mL)
MIC (Klebsiella pneumonia; [4]): 9.4 mM (≈ 2490 µg/mL)
MIC (Bacillus subtilis): 4.7 mM (≈ 1250 µg/mL)
% inhibition (α-amylase), 25 μg/ml [2]: 29.33%
% inhibition (α-amylase), 50 μg/ml [2]: 47.77%
% inhibition (α-amylase), 75 μg/ml [2]: 58.34%
% inhibition (α-amylase), 100 μg/ml [2]: 90.86%
IC50 (antidiabetic activity, α-amylase) [2]: 40.01 µg/mL (≈ 151 µM)
MIC (Candida albicans): 4.7 mM (≈ 1250 µg/mL)
MIC (Aspergillus niger): 4.7 mM (≈ 1250 µg/mL)

COc1ccccc1C=C1SC(=O)NC1=O [Compound 15, 5-(2-Methoxybenzylidene)thiazolidine-2,4-dione]
% inhibition (DPPH), 25 μg/ml [1]: 33.51%
% inhibition (DPPH), 50 μg/ml [1]: 43.98%
% inhibition (DPPH), 75 μg/ml [1]: 77.21%
% inhibition (DPPH), 100 μg/ml [1]: 98.67%
IC50 (antioxidant activity, DPPH) [1]: 43.25 µg/mL (≈ 184 µM)
MIC (Escherichia coli; [3]): 5.31 mM (≈ 1250 µg/mL)
MIC (Salmonella typhi): 5.31 mM (≈ 1250 µg/mL)
MIC (Staphylococcus aureus): 5.31 mM (≈ 1250 µg/mL)
MIC (Bacillus subtilis): 5.31 mM (≈ 1250 µg/mL)
% inhibition (α-amylase), 25 μg/ml [2]: 32.59%
% inhibition (α-amylase), 50 μg/ml [2]: 51.78%
% inhibition (α-amylase), 75 μg/ml [2]: 66.98%
% inhibition (α-amylase), 100 μg/ml [2]: 81.30%
IC50 (antidiabetic activity, α-amylase) [2]: 22.35 µg/mL (≈ 95 µM)
melting point: 147 to 150 °C
MIC (Candida albicans): 5.31 mM (≈ 1250 µg/mL)
MIC (Aspergillus niger): 5.31 mM (≈ 1250 µg/mL)

COc1cc(C=C2SC(=O)NC2=O)cc(OC)c1OC [Compound 10, 5-(3,4,5-Trimethoxybenzylidene)thiazolidine-2,4-dione]
% inhibition (DPPH), 25 μg/ml [1]: 28.61%
% inhibition (DPPH), 50 μg/ml [1]: 39.67%
% inhibition (DPPH), 75 μg/ml [1]: 59.75%
% inhibition (DPPH), 100 μg/ml [1]: 86.70%
IC50 (antioxidant activity, DPPH) [1]: 43.44 µg/mL (≈ 147 µM)
MIC (Escherichia coli; [3]): 8.4 mM (≈ 2480 µg/mL)
MIC (Salmonella typhi): 4.2 mM (≈ 1240 µg/mL)
Minimum inhibitory concentration, S. typhi (Salmonella typhi; tube dilution, 37 ± 1 °C): 4.20 μΜ/ml
MIC (Klebsiella pneumonia; [4]): 4.2 mM (≈ 1240 µg/mL)
% inhibition (α-amylase), 25 μg/ml [2]: 29.34%
% inhibition (α-amylase), 50 μg/ml [2]: 43.98%
% inhibition (α-amylase), 75 μg/ml [2]: 63.36%
% inhibition (α-amylase), 100 μg/ml [2]: 98.14%
IC50 (antidiabetic activity, α-amylase) [2]: 47.49 µg/mL (≈ 161 µM)
melting point: 210 to 213 °C
